The values below come from publication PMC10622577, “Structural basis for stabilisation of the RAD51 nucleoprotein filament by BRCA2” (Nature Communications, 2023).

The subject of one data set is RAD51 D184A. Description: EMSA of BRC4 disruption of NPF formation, RAD51 D184A. In kind it is binding, human. Conditions: BRC4 pre-mixed with RAD51 10 min, room temperature, before addition of ss- or dsDNA, performed once. How it is done:
(§1) To test whether the acidic patch was also required for BRC4 binding to RAD51, we examined whether the interaction of a BRC4 peptide spanning BRCA2 amino acids 1514 to 1548 was impacted by the D184A and D184A, D187 mutations.
(§2) To assess RAD51 nucleoprotein (NPF) formation, wild-type and mutant RAD51 proteins were incubated with DNA in buffer: 25 mM HEPES pH 7.5, 150 mM NaCl, 2 mM DTT, 2 mM ATP, 5 mM CaCl2 for 15 minutes at room temperature. For filament binding of the TR2 peptide or His6-MBP-TR2 protein, the RAD51 NPFs were incubated with TR2 for further 5 minutes at room temperature. For filament binding of BRC4, the BRC4 peptide was pre-mixed with RAD51 for 10 minutes at room temperature before addition of DNA. For experiments with mono-streptavidin (mSA)-capped DNA, mSA (Sigma) was added in 5× molar excess of biotin labels for 15 minutes at room temperature prior to the addition of RAD51. Concentrations are provided in figures and DNA sequences for each experiment are reported in Supplementary Table 1.
(§3) Before electrophoresis, samples were mixed with a 0.5:1 volume of 50% (w/v) sucrose solution and analysed on a pre-run 0.5% (w/v) agarose gel in 0.5× TB buffer at 35 V for 2.5 hours at 4 °C. DNA was visualised by excitation of the fluorescent tag or, in the case of unlabelled DNA, by SYBR Gold staining. […]

For a further data set, the system named is RAD51 D184A, D187A NPF. Description: SPR of BRC4-induced disassembly of RAD51 D184A, D187A NPF. In kind it is binding, human. Particulars: BRC4 0.1-15 μM, 120 s, CMA buffer pH 7.4, response minima, ss- and dsDNA, n = 3. How it is done:
(§4) We investigated further the effect of the acidic patch mutations on TR2 binding using surface plasmon resonance (SPR). We developed an SPR assay whereby increasing amounts of TR2 peptide were added to RAD51 NPFs that had been assembled on biotinylated DNA coupled to a streptavidin chip (Supplementary Fig. 3A, Supplementary Table 1). […] We used the same SPR assay to assess the effect of the mutations on the ability of BRC4 to disrupt an established filament (Supplementary Fig. 4A, Supplementary Table 1).
(§5) All SPR experiments were performed using a Biacore T200 instrument and an S-series SA (Streptavidin) sensor chip. A single chip was used to immobilise biotinylated single- and double-stranded DNA in buffer: 25 mM HEPES pH 7.4, 100 mM NaCl, 1 mM EDTA. ssDNA and dsDNA were immobilised in different channels to a signal of 120 RU and 250 RU, respectively.
(§6) All binding experiments were performed in CMA buffer: 25 mM HEPES pH 7.4, 100 mM NaCl, 2 mM DTT, 2 mM ATP, 5 mM CaCl2, 5 mM MgCl2. 1 μM RAD51 (wild-type, D184A or D184A, D187A mutant proteins) was injected for 120 seconds followed by buffer for 120 seconds at a flow rate of 10 μl/min. TR2 or BRC4 peptides were then injected in a concentration titration series of 0.1, 0.25, 0.5, 0.75, 1, 2, 3, 5, 7.5, 10 and 15 μM for 120 seconds at a flow rate of […] followed by a dissociation time of 240 seconds. […]

In another data set the test system is RAD51 D184A NPF. Description: SPR of BRC4-induced disassembly of RAD51 D184A NPF. Particulars: BRC4 0.1-15 μM, 120 s, CMA buffer pH 7.4, response minima, ss- and dsDNA, n = 3. In kind it is binding, human. How it is done:
as §4, §5, §6

The subject of the next data set is RAD51 D184A, D187A. The experiment in a line: EMSA of BRC4 disruption of NPF formation, RAD51 D184A, D187A. In kind it is binding, human. Conditions: BRC4 pre-mixed with RAD51 10 min, room temperature, before addition of ss- or dsDNA, performed once. How it is done:
as §1, §2, §3
On the technique in general: A gel shift assay detects complexes by their altered migration in electrophoresis.

The subject of another data set is wild-type RAD51 NPF. Description: SPR of BRC4-induced disassembly of wild-type RAD51 NPF. It is filed as binding, human. Particulars: BRC4 0.1-15 μM, 120 s, CMA buffer pH 7.4, response minima, ss- and dsDNA, n = 3. How it is done:
as §4, §5, §6

The target in data set [1] is T1, RAD51;BRCA2 TR2 peptide (Homo sapiens;Homo sapiens, UniProt Q06609;P51587 1-339;, |). Description: cryo-EM structure; mSA caps; EMSA: 25 mM HEPES pH 7.5, 150 mM NaCl, 2 mM DTT, 2 mM ATP, 5 mM CaCl2, room temperature; SPR: 25 mM HEPES pH 7.4, 100 mM NaCl, 2 mM DTT, 2 mM ATP, 5 mM CaCl2, 5 mM MgCl2. Conditions: tags: untagged (co-expressed with His6-MBP-BRC4, pMBP4-RAD51);; label: 5' and 3' biotin.

Data set [2] has as its target T1, RAD51;BRCA2 TR2 peptide. Description: cryo-EM structure; mSA caps; no bundling; EMSA: 25 mM HEPES pH 7.5, 150 mM NaCl, 2 mM DTT, 2 mM ATP, 5 mM CaCl2, room temperature; SPR: 25 mM HEPES pH 7.4, 100 mM NaCl, 2 mM DTT, 2 mM ATP, 5 mM CaCl2, 5 mM MgCl2. Conditions: tags: untagged (co-expressed with His6-MBP-BRC4, pMBP4-RAD51);; label: 5' biotin on both strands; 3' Cy3 on strand 1; blunt ends, internal mismatched bubble about 10 nt.

As to “EKIKEPTLLGFHTASGKKVKIAKESLDKVKNLFDE [BRC4, BRC4 peptide spanning BRCA2 amino acids 1514 to 1548]”, the “ability of BRC4 to disrupt RAD51 NPF formation” value is given as “moderately reduced” in the data set on RAD51 D184A and “severely impaired” in the data set with RAD51 D184A, D187A. Moreover, the “disassembly of an established RAD51 NPF by BRC4, reduction relative to wild-type” value in the data set with RAD51 D184A, D187A NPF is listed as “to a large degree”. Besides, the “disassembly of an established RAD51 NPF by BRC4 relative to wild-type” value with RAD51 D184A NPF is “moderately reduced”. In the data set with wild-type RAD51 NPF, the “disassembly of an established RAD51 NPF by BRC4” value is reported as “able to induce disassembly of a wild-type RAD51 NPF”.

B1: 60-nt ssDNA doubly biotinylated (ssDNA)
DNA: ATGGTGTGTGTAGGTTAATGTGAGGAGGAGAGGTGAAGAAGGAGGAGAGAAGAAGGAGGC
On to B1, for which the binding result in the data set with RAD51;BRCA2 TR2 peptide [1] was “binds”.

B2: 50-nt dsDNA doubly biotinylated Cy3 (dsDNA)
DNA 1: CCGACTGACGCTCAACATAGGTACCACACGGCGAGCTCGATGCACCTCCA
DNA 2: TGGAGGTGCATCGAGCTCGCGACAAACCTTCTATGTTGAGCGTCAGTCGG
B2: the binding result with RAD51;BRCA2 TR2 peptide [2] is listed as “binds”.
